Columns and labels:
[1] = target: T1, Gal4-RORγ-LBD (Homo sapiens, UniProt P51449); test: Gal4-RORγ Luciferase Reporter Assay in HEK-293T Cells; assay type: cell-based; settings: for EC50: HEK-293 cells, with 2 μM ursolic acid, overnight incubation; for Gal4-RORγ Assay Max Response: upper plateau of 4-parameter fit, luciferase signal in absence of ursolic acid or test compound defined at 100
T1 construct: expressed in transfected cells; host or cells: HEK-293 cells, pcDNA3.1neo plasmid
T1 sequence (P51449 269-508 limits assumed): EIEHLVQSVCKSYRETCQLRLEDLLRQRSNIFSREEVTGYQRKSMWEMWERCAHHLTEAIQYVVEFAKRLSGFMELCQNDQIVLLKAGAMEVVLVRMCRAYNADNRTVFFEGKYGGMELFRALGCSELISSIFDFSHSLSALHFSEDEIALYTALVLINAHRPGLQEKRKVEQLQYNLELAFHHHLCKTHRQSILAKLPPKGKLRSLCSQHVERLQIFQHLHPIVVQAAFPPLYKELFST
Experimental: In the following protocol, HEK-293 cells were transfected with a construct comprising the Gal4 DNA binding domain fused to the ligand binding domain of RORγ (Gal4-RORγ-LBD) in a pcDNA3.1neo plasmid, and also with a reporter construct comprising pGL4.31 Gal4-luciferase (Promega). Control cells were prepared similarly using empty pcDNA3.1neo and pGL4.31 vectors.
Trans-IT reagent (Mirus, 60 μL) at room temperature was added drop wise to OptiMEM (Invitrogen, 1.5 ml). This reagent mixture was mixed by inversion then incubated for 5 to 30 minutes at room temperature. It then was added to a solution of both expression vectors (5 μg each), mixed, and incubated at room temperature for about 20 minutes. HEK-293 cells were harvested from incubation flasks by removing the media, treating with TrypLE Express (Invitrogen), and incubating until the cells detached from the bottom of the flask (approximately 2-5 minutes). 10 Million cells were collected by centrifugation and re-suspended in 10 mL of Dulbecco's Modified Eagle Medium, High Glucose (DMEM, Invitrogen) containing 10% Fetal Bovine Serum and 100 IU each of penicillin and streptomycin. The re-suspended cells and the transfection mixture were added to a T75 flask, mixed and incubated overnight at 37° C. and 5% CO2.
The cells were harvested as described above, counted, and centrifuged to obtain the desired number of cells, then re-suspended in complete growth media at 0.75×10^6 cells/mL. The RORγ antagonist, ursolic acid, was added to the cells at a final concentration of 2 μM. Cells were plated at 20 μL of cell suspension/well (10,000-15,000 cells/well) in white tissue culture treated 384 well plates. Test compounds were dissolved at 10 mM in DMSO then diluted into complete growth medium to 5× the final intended test concentration. These drug stock solutions, 5 μL/well were added to the tissue culture plate. The final DMSO concentration was 0.2%. The plates were briefly centrifuged then incubated overnight at 37° C. and 5% CO2. To conduct the assay, the tissue culture plates were allowed to equilibrate to room temperature and One-Glo luciferase reagent (Promega, 25 μL/well) was added. The plates were briefly centrifuged then incubated at room temperature for 10 minutes. The luciferase intensity was read on an Envision plate reader (Perkin Elmer). RORγ activity was determined relative to controls and plotted as a function of test compound concentration using PRISM (GraphPad) to determine a 50% effective concentration (EC50). The luciferase signal in the absence of ursolic acid or test compound is defined at 100. The Max Response is the upper plateau in the signal as determined by line-fit using a 4-parameter logistic model in PRISM (GraphPad).

[2] = target: T2, RORγ-LBD (Homo sapiens, UniProt P51449); test: RORγ-Ligand Binding Domain (LBD) TR-FRET Assay; assay type: biochemical; settings: for TR-FRET Assay Max Response: upper plateau of 4-parameter fit, signal in absence of ursolic acid or test compound set as 100; for EC50: with 2 μM ursolic acid (RORγ antagonist), highest test concentration 10 μM
T2 construct: made in house; host or cells: SF9 cells, baculovirus expression system (lysate used)
T2 sequence (P51449 269-508 limits assumed): T1 sequence (P51449 269-508 limits assumed)
Experimental: HIS-tagged RORγ-LBD protein was expressed in SF9 cells using a baculovirus expression system. The lysate was diluted in assay buffer (50 mM Tris pH 7.0, 50 mM KCl, 1 mM EDTA, 0.1 mM DTT, 0.01% BSA) to obtain RORγ-LBD final concentration of −3 nM in a 384-well assay plate (need to titrate for each batch of protein).
A stock of biotinylated-LXXLL peptide from coactivator SRC1 (Biotin-[…]) was prepared in assay buffer and added to each well (200 nM final concentration). A solution of Europium tagged anti-HIS antibody (0.6 nM final concentration) and APC-conjugated streptavidin (30 nM final concentration) were also added to each well. RORγ antagonist ursolic acid was also included at a final concentration of 2 μM. Compounds were diluted in DMSO and further diluted in assay buffer with a final DMSO concentration at 1%. The highest concentration of test compound analyzed was 10 μM.
The final assay mixture was incubated overnight at 4° C. or 2 hours at room temperature, and the fluorescence signal was measured on an Envision plate reader: (Excitation filter=340 nm; APC emission=665 nm; Europium emission=615 nm; dichroic mirror=D400/D630; delay time=100 μs, integration time=200 μs). 50% Effective concentration (EC50) values for test compounds were calculated from the quotient of the fluorescence signal at 665 nm divided by the fluorescence signal at 615 nm. The quotient of the fluorescence signals in the absence of ursolic acid or test compound is set as 100. Max Response is defined as the upper plateau in the signal as determined by line-fit using a 4-parameter logistic model in PRISM (GraphPad).

Row | Structure (SMILES) | EC50 [1] [nM] | EC50 [2] [nM] | Gal4-RORγ Assay Max Response [1] | TR-FRET Assay Max Response [2]
1 | COC(=O)CCC1Cc2ccc(-c3cc(F)ccc3F)cc2N1S(=O)(=O)c1cccc(C(F)(F)F)c1 (stereo not drawn) [Example 5, methyl 3-(6-(2,5-difluorophenyl)-1-((3-(trifluoromethyl)phenyl)sulfonyl)indolin-2-yl)propanoate] | < 500 | < 500 | ** (a value in the range of greater than 90 to 150) | *** (a value in the range of greater than 150 to 200)
2 | O=S(=O)(c1cccc(C(F)(F)F)c1)N1COc2ccc(-c3cc(F)ccc3F)cc21 [Example 1, 5-(2,5-difluorophenyl)-3-((3-(trifluoromethyl)phenyl)sulfonyl)-2,3-dihydrobenzo[d]oxazole] | < 500 | < 500 | ** (a value in the range of greater than 90 to 150) | *** (a value in the range of greater than 150 to 200)
3 | CCOC(=O)CC1CN(S(=O)(=O)c2cccc(C(F)(F)F)c2)c2cc(-c3cc(F)ccc3F)ccc21 (stereo not drawn) [Example 2, ethyl 2-(6-(2,5-difluorophenyl)-1-((3-(trifluoromethyl)phenyl)sulfonyl)indolin-3-yl)acetate] | < 500 | < 500 | ** (a value in the range of greater than 90 to 150) | *** (a value in the range of greater than 150 to 200)
4 | O=C(O)CC1CN(S(=O)(=O)c2cccc(C(F)(F)F)c2)c2cc(-c3cc(F)ccc3F)ccc21 (stereo not drawn) [Example 3, 2-(6-(2,5-difluorophenyl)-1-((3-(trifluoromethyl)phenyl)sulfonyl)indolin-3-yl)acetic acid] | 5000 to 10000 | < 500 | ** (a value in the range of greater than 90 to 150) | ** (a value in the range of greater than 90 to 150)
5 | O=S(=O)(c1cccc(C(F)(F)F)c1)c1c[nH]c2ccc(-c3cc(F)ccc3F)cc12 [Example 4, 5-(2,5-difluorophenyl)-3-((3-(trifluoromethyl)phenyl)sulfonyl)-1H-indole] | > 10000 |  | * (a value in the range of 25 to 90) | 

The next lines start with results.

Row | EC50 [1] [nM] | EC50 [2] [nM] | Structure (SMILES) | Gal4-RORγ Assay Max Response [1] | TR-FRET Assay Max Response [2]
6 | 500 to 5000 | 500 to 5000 | COC(=O)CCc1cc2ccc(-c3cc(F)ccc3F)cc2n1S(=O)(=O)c1cccc(C(F)(F)F)c1 [Example 7, methyl 3-(6-(2,5-difluorophenyl)-1-((3-(trifluoromethyl)phenyl)sulfonyl)-1H-indol-2-yl)propanoate] | * (a value in the range of 25 to 90) | *** (a value in the range of greater than 150 to 200)
7 | 500 to 5000 | < 500 | O=C(O)CCC1Cc2ccc(-c3cc(F)ccc3F)cc2N1S(=O)(=O)c1cccc(C(F)(F)F)c1 (stereo not drawn) [Example 6, 3-(6-(2,5-difluorophenyl)-1-((3-(trifluoromethyl)phenyl)sulfonyl)indolin-2-yl)propanoic acid] | *** (a value in the range of greater than 150 to 200) | *** (a value in the range of greater than 150 to 200)
8 | 500 to 5000 | 500 to 5000 | O=C(O)CCc1cc2ccc(-c3cc(F)ccc3F)cc2n1S(=O)(=O)c1cccc(C(F)(F)F)c1 [Example 8, 3-(6-(2,5-difluorophenyl)-1-((3-(trifluoromethyl)phenyl)sulfonyl)-1H-indol-2-yl)propanoic acid] | ** (a value in the range of greater than 90 to 150) | *** (a value in the range of greater than 150 to 200)

From US20200207726A1, “INDOLINYL SULFONAMIDE AND RELATED COMPOUNDS FOR USE AS AGONISTS OF RORY AND THE TREATMENT OF DISEASE” (Lycera Corporation, priority 2017, published 2020)
